“Also recorded” adds a separate entry of the source. Like-named read-outs stand apart in the source and are kept apart here.
Experiments:
MC4R V103I [1] = settings: synthetic agonist MTII; cited from earlier work
[2] = system: all tested MC4R mutations; assay: GS signaling (cAMP) with AgRP, all tested MC4R mutations; settings: all tested MC4R mutations and ligands; Figure S1
Protocol: (§5) Therefore, in addition to cAMP measurements to assess GS activation in the absence and presence of 100 nM AgRP, we measured Gi/o activation via determination of second messenger (cAMP) modulation by adenylyl cyclase (AC) in the absence or presence of pertussis toxin (PTX) pretreatment.
(§6) GS and Gi coupling to the MC4R were determined using the AlphaScreen™ assay (Perkin Elmer Life Science, Boston, MA, USA) performed according to the manufacturer’s protocol and described elsewhere [68]. […] Determination of Gi coupling was investigated by pretreatment with 50 µg/mL PTX 18 h before stimulation. All stimulations were performed at 37 °C and 5% CO2. Incubation was stopped by removing the compounds and lysing the cells in lysis buffer containing IBMX for 1.5–2 h at 4 °C on a shaking platform.
(§7) The determination of cAMP using the AlphaScreen™ assay is a competitive immune assay based on antibody-coupled acceptor beads that bind cAMP and streptavidin-coupled donor beads that bind to a biotinylated cAMP probe. Excitement of the donor bead leads to the conversion of ambient oxygen to a singlet state. […] Absolute amounts of cAMP are determined by the simultaneous measurement of a cAMP standard. The plate reader (Mithras 940 LB)) was used for the read out, at 565 nm.

MC4R = settings: cited from earlier work
From the text: The MC4R signals mainly via activation of the stimulating G protein GS, which leads to an increase in intracellular cyclic adenosine-monophosphate (cAMP). In recent years, more and more studies provided evidence that the MC4R is able to couple to a variety of signaling pathways, such as extracellular regulated kinase (ERK) activation, and to other G proteins, such as Gi/o, Gq/11 and G12/13 [10, 11, 12, 13]. These pathways might also be involved in the anorexigenic effect of the activated MC4R [14].

MC4R H158R [3] = settings: 100 nM AgRP
MC4R V103I [4] = settings: agonist α-MSH, 100 nM AgRP
MC4R H158R [5] = biological target: T1, MC4R H158R (Homo sapiens, UniProt P32245, H158R)
Target sequence in this assay (P32245 whole entry H158R): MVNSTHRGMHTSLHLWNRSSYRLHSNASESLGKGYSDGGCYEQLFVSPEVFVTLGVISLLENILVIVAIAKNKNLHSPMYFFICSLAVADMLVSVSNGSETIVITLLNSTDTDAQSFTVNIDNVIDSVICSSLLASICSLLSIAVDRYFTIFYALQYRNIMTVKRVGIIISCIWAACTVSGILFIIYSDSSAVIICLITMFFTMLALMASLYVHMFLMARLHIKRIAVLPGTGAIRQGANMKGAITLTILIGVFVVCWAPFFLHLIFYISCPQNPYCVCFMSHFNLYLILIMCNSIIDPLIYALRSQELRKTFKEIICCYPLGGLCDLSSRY
Protocol: (§8) Therefore, in addition to cAMP measurements to assess GS activation in the absence and presence of 100 nM AgRP, we measured Gi/o activation via determination of second messenger (cAMP) modulation by adenylyl cyclase (AC) in the absence or presence of pertussis toxin (PTX) pretreatment. In the presence of PTX, which locks the Gαi/o subunit in its GDP-bound inactivated state, the G protein is no longer able to inhibit the AC to form cAMP [48]. Although this is an indirect way of measuring the contributions from Gi/o signaling to the total amount of intracellular cAMP, we will refer to these measurements as Gi/o coupling in order to simplify the results part.
(§9) GS and Gi coupling to the MC4R were determined using the AlphaScreen™ assay (Perkin Elmer Life Science, Boston, MA, USA) performed according to the manufacturer’s protocol and described elsewhere [68]. […] Determination of Gi coupling was investigated by pretreatment with 50 µg/mL PTX 18 h before stimulation. […]
(§10) The determination of cAMP using the AlphaScreen™ assay is a competitive immune assay based on antibody-coupled acceptor beads that bind cAMP and streptavidin-coupled donor beads that bind to a biotinylated cAMP probe. […] Absolute amounts of cAMP are determined by the simultaneous measurement of a cAMP standard. The plate reader (Mithras 940 LB)) was used for the read out, at 565 nm. […]

MC4R V103I [6] = biological target: T2, MC4R V103I (Homo sapiens, UniProt P32245, V103I)
Target sequence in this assay (P32245 whole entry V103I): as the sequence (P32245 whole entry H158R) above, with V103I, R158H counted along it
Protocol: (§11) Activation of PLC, RhoA and ERK1/2 phosphorylation was determined using luciferase-based reporter gene assays that utilize responsive elements in the promotor region of the gene encoding a firefly luciferase. For PLC activation, the NFAT responsive element (NFAT-luc, pGL4.33) was co-transfected with the receptor mutations. Similarly, co-transfections with SRF responsive element (SRF-luc, pGL4.33, Promega, Mannheim, Germany) for RhoA activation and Serum response element (SRE-luc, pGL3.4, Promega, Mannheim, Germany) for ERK1/2 phosphorylation were performed. […]
(§12) Measurement of luciferase activity provided information about the activation of the respective second messenger by transferring 10 µL lysate into a white opaque 96-well plate. Injection of 40 µL firefly luciferase substrate (Promega, Mannheim, Germany) and measurement of luminescence was performed with a plate reader (Mithras LB 940).
(§13) Concentration–response curves of each experiment were analyzed by fitting a non-linear regression model for sigmoidal response in Graph Pad Prism 6 (GraphPad Software Inc., La Jolla, CA, USA) to determine potency (EC50 values). […] Emax is the maximal response (efficiency) of the mutation, which was determined from the concentration–response curves. […]

MC4R V103I [7] = biological target: T2, MC4R V103I; remark: listed apart in the source
Target sequence in this assay (P32245 whole entry V103I): as the sequence (P32245 whole entry H158R) above, with V103I, R158H counted along it
Protocol: as §11, §12, §13

MC4R V103I [8] = biological target: T2, MC4R V103I; remark: listed apart in the source
Target sequence in this assay (P32245 whole entry V103I): as the sequence (P32245 whole entry H158R) above, with V103I, R158H counted along it
Protocol: as §6
The determination of cAMP using the AlphaScreen™ assay is a competitive immune assay based on antibody-coupled acceptor beads that bind cAMP and streptavidin-coupled donor beads that bind to a biotinylated cAMP probe. Excitement of the donor bead leads to the conversion of ambient oxygen to a singlet state. In close proximity of donor and acceptor beads through binding the biotinylated probe, the acceptor reacts with the singlet molecule and emits light. Absolute amounts of cAMP are determined by the simultaneous measurement of a cAMP standard. The plate reader (Mithras 940 LB)) was used for the read out, at 565 nm.
Concentration–response curves of each experiment were analyzed by fitting a non-linear regression model for sigmoidal response in Graph Pad Prism 6 (GraphPad Software Inc., La Jolla, CA, USA) to determine potency (EC50 values). For mutations that had EC50 values outside of concentration tested, it was set to the appropriate highest concentration tested. Signaling bias analysis was performed as described by Kenakin (2017) [69] using the formula (4) Δlog(Emax/EC50) = log(Emaxtest/EC50 test)−log(Emaxref/EC50 ref) with test referring to the tested receptor mutation and ref being reference (MC4R WT). Emax is the maximal response (efficiency) of the mutation, which was determined from the concentration–response curves. Where no Emax could be determined from incomplete curves (e.g., in case of AgRP co-stimulation), the response of the maximal concentration was substituted as has been described by Winpenny et al. (2016) [70].

MC4R WT [9] = assay: GS signaling (cAMP) with AgRP co-stimulation, MC4R WT; type: cell-based, human
Protocol: as §5, §6, §7

MC4R H158R [10] = biological target: T1, MC4R H158R; remark: listed apart in the source
Target sequence in this assay (P32245 whole entry H158R): as the sequence (P32245 whole entry H158R) above
Protocol: as §11, §12, §13

MC4R WT [11] = biological target: T3, MC4R WT (Homo sapiens, UniProt P32245); assay: β-arrestin2 recruitment (NanoBRET), MC4R WT; type: cell-based; set-up: expressed in transfected cells; host or cells: HEK293; settings: HEK293, β-arrestin2, 5 min, mean ± SEM, 3 to 7 experiments in triplicates
Protocol: (§1) A total of 16–20 h after transfection in 6-well plates, cells were detached, and cell number was adjusted to 2.2 × 10^5 cells/mL in Opti-MEM without phenol red supplemented with 4% FBS. Cells were divided into two pools, adding either the acceptor NanoBRET™ Ligand 618 (1 µL/mL cells of 0.1 mM solution) or the same amount of DMSO as background control. After reseeding 90 µL cell suspension/well into a white 96-well plates, incubation was continued for 4–6 h.
(§2) For measurements, 25 µL of NanoBRET™ substrate was injected using a plate reader (Mithras LB 940). Donor and acceptor emission were measured at 460 nm and 610 nm, respectively, and the BRET ratio was calculated by dividing acceptor emission by donor emission:(1) BRET ratio =emissionacceptor/emissiondonor
(§3) The ratio was corrected for background bleed through by subtracting of the background ratio (no acceptor DMSO control) and conversion to milliBRET units (mBU):(2) corrected BRET ratio [mBU]=(BRET ratiosample−BRET rationo acceptor control)×1000
(§4) To calculate the difference between stimulated and basal interaction, the NET BRET was acquired using the formula:(3) NET BRET = corrected BRET ratiostim− corrected BRET ratiobasal
Target sequence in this assay (P32245 whole entry): as the sequence (P32245 whole entry H158R) above, with R158H counted along it
Target sequence in this assay (P29067 whole entry partner): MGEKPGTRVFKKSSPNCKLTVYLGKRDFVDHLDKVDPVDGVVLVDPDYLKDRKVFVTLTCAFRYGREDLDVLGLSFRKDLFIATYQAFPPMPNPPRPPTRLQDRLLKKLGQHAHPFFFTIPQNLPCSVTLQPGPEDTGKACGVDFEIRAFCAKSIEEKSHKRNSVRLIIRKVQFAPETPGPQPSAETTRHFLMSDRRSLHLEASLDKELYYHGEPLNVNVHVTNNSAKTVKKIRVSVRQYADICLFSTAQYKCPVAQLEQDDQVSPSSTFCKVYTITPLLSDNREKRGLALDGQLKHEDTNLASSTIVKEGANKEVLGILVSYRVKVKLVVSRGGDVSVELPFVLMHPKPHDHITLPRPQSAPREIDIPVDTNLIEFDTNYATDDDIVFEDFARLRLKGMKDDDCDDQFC

MC4R H158R [12] = biological target: T1, MC4R H158R; remark: listed apart in the source
Target sequence in this assay (P32245 whole entry H158R): as the sequence (P32245 whole entry H158R) above
Protocol: as §11, §12, §13

MC4R V103I [13] = biological target: T2, MC4R V103I; remark: listed apart in the source
Target sequence in this assay (P32245 whole entry V103I): as the sequence (P32245 whole entry H158R) above, with V103I, R158H counted along it
Protocol: as §11, §12, §13

MC4R WT [14] = biological target: T3, MC4R WT; settings: HEK293, SRE-luc, 6 h, mean ± SEM, 3 to 7 experiments in triplicates
Target sequence in this assay (P32245 whole entry): as the sequence (P32245 whole entry H158R) above, with R158H counted along it
Protocol: as §11, §12, §13

MC4R WT [15] = biological target: T3, MC4R WT; settings: HEK293, PTX-sensitive cAMP, mean ± SEM, 3 to 7 experiments in triplicates
Target sequence in this assay (P32245 whole entry): as the sequence (P32245 whole entry H158R) above, with R158H counted along it
Protocol: as §8, §9, §10

MC4R WT [16] = biological target: T3, MC4R WT; settings: HEK293, SRF-luc, 6 h, mean ± SEM, 3 to 7 experiments in triplicates
Target sequence in this assay (P32245 whole entry): as the sequence (P32245 whole entry H158R) above, with R158H counted along it
Protocol: as §11, §12, §13

MC4R WT [17] = biological target: T3, MC4R WT; settings: HEK293, NFAT-luc, 6 h, mean ± SEM, 3 to 7 experiments in triplicates
Target sequence in this assay (P32245 whole entry): as the sequence (P32245 whole entry H158R) above, with R158H counted along it
Protocol: as §11, §12, §13

MC4R H158R [18] = biological target: T1, MC4R H158R; type: cell-based; set-up: expressed in transfected cells; host or cells: HEK293
Protocol: as §1, §2, §3, §4
Target sequence in this assay (P32245 whole entry H158R): as the sequence (P32245 whole entry H158R) above
Target sequence in this assay (P29067 whole entry partner): as the sequence (P29067 whole entry partner) above

MC4R V103I [19] = biological target: T2, MC4R V103I; type: cell-based; set-up: expressed in transfected cells; host or cells: HEK293; settings: HEK293, β-arrestin2, 5 min, mean ± SEM, 3 to 7 experiments in triplicates
Protocol: as §1, §2, §3, §4
Target sequence in this assay (P32245 whole entry V103I): as the sequence (P32245 whole entry H158R) above, with V103I, R158H counted along it
Target sequence in this assay (P29067 whole entry partner): as the sequence (P29067 whole entry partner) above

MC4R H158R [20] = biological target: T1, MC4R H158R; remark: listed apart in the source
Target sequence in this assay (P32245 whole entry H158R): as the sequence (P32245 whole entry H158R) above
Protocol: as §6, §7, §13

MC4R H158R [21] = biological target: T1, MC4R H158R; remark: listed apart in the source
Target sequence in this assay (P32245 whole entry H158R): as above
Protocol: as §11, §12, §13

MC4R V103I [22] = biological target: T2, MC4R V103I; remark: listed apart in the source
Target sequence in this assay (P32245 whole entry V103I): as the sequence (P32245 whole entry H158R) above, with V103I, R158H counted along it
Protocol: as §8, §9, §10

MC4R WT [23] = biological target: T3, MC4R WT; settings: HEK293, cAMP, 40 min, IBMX, mean ± SEM, 3 to 7 experiments in triplicates
Target sequence in this assay (P32245 whole entry): as the sequence (P32245 whole entry H158R) above, with R158H counted along it
Protocol: as §6, §7, §13

[24] = HEK293, PTX-sensitive cAMP, mean ± SEM, 3 to 7 experiments in triplicates
[25] = HEK293, NFAT-luc, 6 h, mean ± SEM, 3 to 7 experiments in triplicates
[26] = HEK293, SRE-luc, 6 h, mean ± SEM, 3 to 7 experiments in triplicates
[27] = HEK293, cAMP, 40 min, IBMX, mean ± SEM, 3 to 7 experiments in triplicates
[28] = HEK293, SRF-luc, 6 h, mean ± SEM, 3 to 7 experiments in triplicates

## Agouti-related peptide (SSRRCVRLHESCLGQQVPCCDPCATCYCRFFNAFCYCRKLGTAMNPCSRT; UniProt O00253 83-132, looked up) [AgRP]
MC4R V103I [1]
  AgRP antagonistic potency: modestly reduced AgRP antagonistic potency
[2]
  effect of AgRP on GS signaling: decreased GS signaling for all tested MC4R mutations and ligands
MC4R; ref 15, 17
  mode of action at MC4R: inverse agonist
MC4R; ref 15, 18
  mode of action at MC4R: competitive antagonist
MC4R H158R [3]; agonist α-MSH
  antagonistic effect of AgRP: loss-of-antagonist effect
MC4R H158R [3]; agonist β-MSH
  antagonistic effect of AgRP: loses its antagonistic effect for this mutation
MC4R V103I [4]
  antagonistic effect of AgRP: tendency towards a reduced antagonist effect of AgRP, which was, however, not significant; also recorded: tendency towards a decreased antagonistic effect

## CSCC[C@H](NC(=O)[C@H](CCCNC(=N)N)NC(=O)[C@H](Cc1ccc(O)cc1)NC(=O)[C@@H]1CCCN1C(=O)CNC(=O)[C@H](CCC(=O)O)NC(=O)[C@H](CC(=O)O)NC(=O)[C@H](CCCCN)NC(=O)[C@H](CCCCN)NC(=O)[C@H](CCC(=O)O)NC(=O)[C@H](C)N)C(=O)N[C@@H](CCC(=O)O)C(=O)N[C@@H](Cc1c[nH]cn1)C(=O)N[C@@H](Cc1ccccc1)C(=O)N[C@@H](CCCNC(=N)N)C(=O)N[C@@H](Cc1c[nH]c2ccccc12)C(=O)NCC(=O)N[C@@H](CO)C(=O)N1CCC[C@H]1C(=O)N1CCC[C@H]1C(=O)N[C@@H](CCCCN)C(=O)N[C@@H](CC(=O)O)C(=O)O [β-MSH, β-melanocyte stimulating hormone]
MC4R H158R [5]
  Gi/o coupling compared to WT: strong bias towards Gi/o signaling
MC4R H158R [5]; [24]
  Emax: 38.55 fold over WT basal
MC4R V103I [6]
  Gq/11 (PLC) activation compared to WT: increased Gq/11 coupling
MC4R V103I [6]; [25]
  Emax: 14.65 fold over WT basal
MC4R V103I [7]
  ERK phosphorylation compared to WT: tendency towards an ERK signaling bias, which was not significant
MC4R V103I [7]; [26]
  Emax: 5.14 fold over WT basal
MC4R V103I [8]
  GS signaling compared to WT: reduced (though not significantly); also recorded: tendency towards low GS signaling
MC4R V103I [8]; [27]
  Emax: 8.69 fold over WT basal
MC4R WT [9]
  GS signaling in the presence of 100 nM AgRP: not as strongly affected compared to the one of α-MSH
MC4R H158R [10]
  Gq/11 (PLC) activation compared to WT: increased GS and Gq/11 signaling
MC4R H158R [10]; [25]
  Emax: 10.40 fold over WT basal
MC4R WT [11]
  Emax: 1.93 fold over WT basal
MC4R H158R [12]
  ERK phosphorylation compared to WT: augmented ERK phosphorylation
MC4R H158R [12]; [26]
  Emax: 5.55 fold over WT basal
MC4R V103I [13]
  G12/13 (RhoA) activation compared to WT: strong positive bias towards Gi/o coupling, RhoA activation via G12/13
MC4R V103I [13]; [28]
  Emax: 2.29 fold over WT basal
MC4R WT [14]
  Emax: 4.94 fold over WT basal
MC4R WT [15]
  Emax: 26.86 fold over WT basal
MC4R WT [16]
  Emax: 2.40 fold over WT basal
MC4R WT [17]
  Emax: 6.58 fold over WT basal
MC4R H158R [18]
  β-arrestin2 recruitment compared to WT: WT-like activity in G12/13 and β-arrestin2 recruitment
MC4R V103I [19]
  Emax: 1.35 fold over WT basal
MC4R H158R [20]
  GS signaling compared to WT: increased GS and Gq/11 signaling
MC4R H158R [20]; [27]
  Emax: 14.85 fold over WT basal
MC4R H158R [21]
  G12/13 (RhoA) activation compared to WT: WT-like activity in G12/13 and β-arrestin2 recruitment
MC4R H158R [21]; [28]
  Emax: 2.18 fold over WT basal
MC4R V103I [22]
  Gi/o coupling compared to WT: strong positive bias towards Gi/o coupling
MC4R V103I [22]; [24]
  Emax: 16.65 fold over WT basal
MC4R WT [23]
  Emax: 10.05 fold over WT basal
